Reference: PMC8259862, “Latency, thermal stability, and identification of an inhibitory compound of mirolysin, a secretory protease of the human periodontopathogen Tannerella forsythia” (Journal of Enzyme Inhibition and Medicinal Chemistry, 2021)
“And” between values parts separate entries of the source, which are not always exact repeats. Equal entries are not always repeated.

Tests used:
[1] = target: Arg-specific gingipains, Rgp; set-up: method as in PMID 15361547; settings: cited from earlier work
[2] = target: Lys-specific gingipain, Kgp; set-up: method as in PMID 15361547; settings: cited from earlier work
[3] = target: T1, mirolysin (Tannerella forsythia, UniProt A0A0F7IPS1); experiment: Screening of compound specificity: mirolysin; assay type: biochemical; settings: read-out: decrease in mirolysin activity
T1 sequence (A0A0F7IPS1 entry or part of it): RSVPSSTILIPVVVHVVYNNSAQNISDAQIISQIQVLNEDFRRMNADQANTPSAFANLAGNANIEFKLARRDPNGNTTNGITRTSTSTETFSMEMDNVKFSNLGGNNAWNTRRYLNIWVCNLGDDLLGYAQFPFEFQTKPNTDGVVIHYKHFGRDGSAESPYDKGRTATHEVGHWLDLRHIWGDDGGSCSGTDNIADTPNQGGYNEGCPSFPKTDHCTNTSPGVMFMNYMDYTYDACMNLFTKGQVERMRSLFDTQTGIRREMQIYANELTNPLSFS
Description: (§1) The residual proteolytic activity was determined employing Azocoll (12 mg/ml) or, for gingipains only, FTC-casein (50 µg/ml), as described above.

[4] = target: T2, karilysin (Tannerella forsythia, UniProt D0EM77); experiment: Screening of compound specificity: karilysin; assay type: biochemical; settings: 100 nM protease, 100 M excess of compound, Azocoll
T2 construct: made in house
T2 sequence (D0EM77 35-472): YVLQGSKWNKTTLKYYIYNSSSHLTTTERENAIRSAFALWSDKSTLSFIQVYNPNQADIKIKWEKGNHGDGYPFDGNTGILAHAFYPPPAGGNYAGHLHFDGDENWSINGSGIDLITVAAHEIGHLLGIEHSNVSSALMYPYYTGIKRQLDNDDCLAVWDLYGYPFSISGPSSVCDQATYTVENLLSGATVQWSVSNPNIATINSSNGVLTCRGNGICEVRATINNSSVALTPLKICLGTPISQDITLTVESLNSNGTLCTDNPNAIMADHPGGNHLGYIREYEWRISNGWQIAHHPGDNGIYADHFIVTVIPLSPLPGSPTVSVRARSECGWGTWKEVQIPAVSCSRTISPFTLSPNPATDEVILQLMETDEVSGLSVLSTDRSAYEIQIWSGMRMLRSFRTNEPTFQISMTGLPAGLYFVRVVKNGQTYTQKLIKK
Description: as §1

[5] = target: T1, mirolysin; experiment: Determination of inhibition constant (Ki) and mode of inhibition (FTC-casein); assay type: biochemical; settings: for mode of inhibition: Lineweaver-Burk plot
Description: After 15 min of incubation at 37 °C, 100 µl fluorogenic protein substrate FTC-casein was added at different concentrations (5–120 µg/ml), and the residual proteolytic activity was recorded. The mode of inhibition of target proteases by the compounds was determined graphically using the Lineweaver–Burk plot using Equation (2): (2) 1/V=Km/Vmax×1/[S]+1/Vmax where V is the reaction velocity, Vmax is the maximum V, Km is the Michaelis–Menten constant, and [S] is the substrate concentration. The Ki was determined using a macro for competitive inhibition from GraphPad Prism software (La Jolla, CA, USA) and Equation (3): (3) V=Vmax×[S]/Kmobs+[S]; Kmobs=Km×(1+[I]/Ki) where Kmobs is the Michaelis–Menten constant in the presence of inhibitor, and [I] is the inhibitor concentration.

[6] = target: T3, RgpB (Porphyromonas gingivalis, UniProt P95493); experiment: Screening of compound specificity: RgpB; assay type: biochemical; settings: 100 nM protease, 100 M excess of compound, FTC-casein
T3 construct: His; made in house
T3 sequence (P95493 230-736): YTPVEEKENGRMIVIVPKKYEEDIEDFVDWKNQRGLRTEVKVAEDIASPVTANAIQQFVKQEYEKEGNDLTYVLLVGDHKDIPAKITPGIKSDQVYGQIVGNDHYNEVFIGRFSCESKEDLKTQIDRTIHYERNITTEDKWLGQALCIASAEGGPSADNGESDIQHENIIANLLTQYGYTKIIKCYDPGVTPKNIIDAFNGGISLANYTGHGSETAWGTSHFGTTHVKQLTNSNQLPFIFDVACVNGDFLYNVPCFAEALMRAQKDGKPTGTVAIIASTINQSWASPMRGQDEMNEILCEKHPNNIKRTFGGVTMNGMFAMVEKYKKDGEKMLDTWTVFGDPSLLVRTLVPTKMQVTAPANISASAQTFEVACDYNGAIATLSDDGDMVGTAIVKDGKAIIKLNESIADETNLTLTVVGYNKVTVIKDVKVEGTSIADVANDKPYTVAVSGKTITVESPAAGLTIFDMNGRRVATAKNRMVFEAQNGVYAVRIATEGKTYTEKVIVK
Description: as §1

[7] = target: T1, mirolysin; experiment: Dose-dependent inhibition of mirolysin (Azocoll); assay type: biochemical
Description: (§2) Mirolysin activity was routinely determined in assay buffer (50 mM Tris, 150 mM NaCl, 5 mM CaCl2, 0.02% NaN3, pH 7.5) supplemented with 0.05% Pluronic F-127, employing Azocoll or FTC-caseins as a substrate. Briefly, an Azocoll suspension was added to the sample in Eppendorf tubes and vigorously shaken for 15 min–2 h at 37 °C. Undigested Azocoll was removed by centrifugation (16,100 × g, 5 min, 4 °C), and the absorbance at 410 nm was measured using a Sunrise absorbance microplate reader (Tecan, Männedorf, Switzerland). In the case of FTC-casein, analysed samples were transferred into wells of a black microtiter plate (Nunc, Roskilde, Denmark), and then the FTC-casein solution was added. Proteolytic activity was recorded as an increase in fluorescence (excitation/emission = 485/538 nm) over time using a SpectraMax Gemini EM reader (Molecular Devices, San Jose, CA, USA).
Mirolysin (0.1 µM) was incubated with increasing concentrations of compounds (0–100 µM) in 50 µl assay buffer (50 mM Tris, 0.15 M NaCl, 5 mM CaCl2, 0.02% NaN3, pH 7.5) for 15 min at 37 °C, before 200 µl Azocoll suspension (15 mg/ml in assay buffer) was added.

[8] = target: T1, mirolysin; experiment: 2D NMR titration of 15N-labelled mirolysin (KD); assay type: binding; settings: KD by NMR titration, estimated from peaks in fast exchange, 298 K
Description: The custom-selected Maybridge diversity library of 1500 fragments was screened using the saturation transfer difference (STD) ligand-based approach, with fragments pooled into cocktails of five fragments each. STD spectra were recorded at a concentration of 10 µM mirolysin, with the final concentration of each fragment in the sample at 1 mM. D6-DMSO was used for the lock signal. STD experiments used alternating on- and off-resonance saturation (2s saturation, Gaussian pulse, +0.6 ppm, −5 ppm, 128 scans) with water suppression using a double-pulsed-field gradient spin-echo (DPFGSE) watergate W5 double-echo sequence[32]^,[33]. Spectra were compared with a reference containing d6-DMSO only. […] Hits identified using STD–NMR, based on the intensity ratio of ligand signals between the STD experiment and a 1D reference spectrum, were validated using ^1H,^15N heteronuclear single quantum coherence (HSQC) experiments with water flip back and watergate water suppression[34]^,[35], with spectra assessed for chemical shift perturbations (CSPs) relative to a control containing d6-DMSO. […] Spectra were recorded with 40 scans, and a ^1H spectral width of 9615.4 Hz and a ^15N spectral width of 2128.9 Hz, with 2048 and 256 complex points, respectively. All experiments were recorded at 298 K using a Bruker Avance 600 MHz spectrometer (^1H frequency, 600 MHz) equipped with a 5 mm QCI cryoprobe.

[9] = target: T1, mirolysin; experiment: Screening round II: inhibitory activity of the 21 fragments against mirolysin (FTC-casein); assay type: biochemical; settings: molar ratio 50:1 (compound:enzyme), read-out: reduction of mirolysin activity (screening round II)
Description: as §2
Mirolysin (40 nM) was mixed with each of the 21 compounds (2 µM) (Supplementary Table 1) in assay buffer (50 mM Tris, 150 mM NaCl, 5 mM CaCl2, 0.02% NaN3, 0.05% Pluronic F-127, pH 7.5) in a 96-well plate (total volume, 100 µl). After 15 min at 37 °C, 100 µl of the substrate solution FTC-casein (100 µg/ml) was added, and substrate hydrolysis was monitored. The percentage of inhibition was determined relative to the sample containing the enzyme without any compound added (control sample). […]

[10] = test system: forsilysin; experiment: Screening of compound specificity: forsilysin; assay type: biochemical, Tannerella forsythia; settings: 100 nM protease, 100 M excess of compound, Azocoll
Description: as §1

[11] = target: T4, bovine trypsin (Bos taurus, UniProt P00760); experiment: Screening of compound specificity: trypsin; assay type: biochemical; settings: 100 nM protease, 100 M excess of compound, Azocoll
T4 construct: purchased Merck Sigma-Aldrich
T4 sequence (P00760 24-246): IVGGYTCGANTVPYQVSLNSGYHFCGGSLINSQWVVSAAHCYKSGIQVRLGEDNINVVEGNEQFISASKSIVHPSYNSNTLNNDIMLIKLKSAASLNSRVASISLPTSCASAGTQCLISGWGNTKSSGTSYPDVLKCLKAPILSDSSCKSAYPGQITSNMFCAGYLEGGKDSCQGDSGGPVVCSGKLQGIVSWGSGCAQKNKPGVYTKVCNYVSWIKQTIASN
Description: as §1

[12] = target: T5, human thrombin (Homo sapiens, UniProt P00734); experiment: Screening of compound specificity: thrombin; assay type: biochemical; settings: 100 nM protease, 100 M excess of compound, Azocoll
T5 construct: purchased Merck Sigma-Aldrich
Description: as §1

[13] = target: T1, mirolysin; experiment: Determination of KD by microscale thermophoresis; assay type: binding
Description: The Monolith NT.115 instrument (NanoTemper) was used to analyse binding interactions between mirolysin and compounds 9, 10, and 21. Lysine residues of mirolysin were fluorescently labelled with the Monolith NT Protein Labelling Kit RED-NHS-Red dye (NanoTemper), strictly according to the manufacturer’s instruction (a 7 M excess of dye was used). Compounds at concentrations ranging from 1.5 to 25 000 nM were incubated for 5 min at 20 °C with 20 nM mirolysin. Experiments were performed in 0.1 M Tris, 0.15 M NaCl, 5 mM CaCl2, 0.05% Pluronic-F127, 0.02% NaN3, pH 7.5. Samples were loaded into Monolith NT.115 Standard Treated glass capillaries (NanoTemper), and an initial fluorescence measurement followed by a thermophoresis measurement was carried out using 80% LED power and high microscale thermophoresis (MST) power. KD values were calculated using MO. Affinity Analysis software (NanoTemper). Each experiment was performed in triplicate.

[14] = target: T6, human plasmin (Homo sapiens, UniProt P00747); experiment: Screening of compound specificity: plasmin; assay type: biochemical; settings: 100 nM protease, 100 M excess of compound, Azocoll
T6 construct: purchased Merck Sigma-Aldrich
T6 sequence (P00747 581-810 limits assumed): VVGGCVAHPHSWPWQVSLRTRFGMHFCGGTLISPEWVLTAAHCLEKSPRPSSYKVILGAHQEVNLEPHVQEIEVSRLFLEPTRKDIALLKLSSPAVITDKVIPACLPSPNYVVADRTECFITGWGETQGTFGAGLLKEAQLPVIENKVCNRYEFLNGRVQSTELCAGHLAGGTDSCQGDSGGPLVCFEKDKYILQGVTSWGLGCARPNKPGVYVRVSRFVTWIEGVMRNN
T6 sequence (P00747 97-580 partner limits assumed): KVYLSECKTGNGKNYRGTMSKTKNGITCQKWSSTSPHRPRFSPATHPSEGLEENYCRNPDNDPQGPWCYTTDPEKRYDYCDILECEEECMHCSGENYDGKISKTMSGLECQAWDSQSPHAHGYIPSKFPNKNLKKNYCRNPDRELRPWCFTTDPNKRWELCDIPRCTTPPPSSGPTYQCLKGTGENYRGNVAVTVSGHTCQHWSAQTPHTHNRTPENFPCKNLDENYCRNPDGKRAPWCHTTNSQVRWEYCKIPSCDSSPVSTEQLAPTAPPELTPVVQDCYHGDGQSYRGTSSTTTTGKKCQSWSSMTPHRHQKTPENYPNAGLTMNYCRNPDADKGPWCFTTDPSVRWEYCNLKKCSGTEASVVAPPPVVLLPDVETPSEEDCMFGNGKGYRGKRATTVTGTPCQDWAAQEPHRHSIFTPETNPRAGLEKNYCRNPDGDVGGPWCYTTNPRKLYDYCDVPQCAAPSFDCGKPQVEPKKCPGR
Description: as §1

[15] = target: T7, Kgp (Porphyromonas gingivalis, UniProt B2RLK2); experiment: Screening of compound specificity: Kgp; assay type: biochemical; settings: 100 nM protease, 100 M excess of compound, FTC-casein
T7 construct: made in house
Description: as §1

[16] = test system: promirolysin (proM^wt); experiment: Effect of compounds on promirolysin autoprocessing (activation in cis); assay type: biochemical, Tannerella forsythia
Description: ProM^wt (70 µM) was activated at 37 °C in 5 mM Tris, 50 mM NaCl, 0.02% NaN3, pH 8.0, alone or in the presence of a […] excess of different compounds. At specific time points, aliquots were withdrawn and analysed by SDS–PAGE (10% gels; 4 µl sample, preincubated with 1:1 (vol:vol) of 20 mM 1,10-phenanthroline for 5 min at room temperature), and measured in a proteolytic activity assay, employing FTC-casein (25 µg/ml) as a substrate.

[17] = test system: mirolase; experiment: Screening of compound specificity: mirolase; assay type: biochemical, Tannerella forsythia; settings: 100 nM protease, 100 M excess of compound, Azocoll
Description: as §1

[18] = […] excess of compound, FTC-casein

With `CN(C)C(=O)[C@H](CCCCN)NC(=O)C(=O)[C@H](CCCN=C(N)N)NC(=O)[C@H](CCCCN)NC(=O)OCc1ccccc1` [Kyt-1] as the compound, how does the Ki [1] read?
Its Ki is 0.00013 µM.

Which Ki [2] does the source give for `CN(NC(=O)CC[C@H](NC(=O)OCc1ccccc1)C(=O)N[C@@H](CCCCN)C(=O)C(=O)NCc1ccccc1)c1ccccc1` [Kyt-36] here?
The Ki was 0.075 nM.

Which inhibition at 10 µM [3] does the source give for `NCc1cccc2nsnc12` [cpd 9] here?
The inhibition at 10 µM was 50%.

What about the “effect on karilysin activity” value [4] of the same compound?
The value was “almost completely unaffected”.

And the “effect on karilysin activity” value ([4]; listed as Cpd 9)?
Its value is “did not affect”.

And the Ki [5]?
The Ki was 3.2 µM.

What about the mode of inhibition [5] of the same compound?
The mode of inhibition was “reversible competitive inhibitors”.

What about the “effect on RgpB activity” value [6] of the same compound?
Its value is “almost completely unaffected”.

What about the “effect on RgpB activity” value ([6]; listed as Cpd 9) of the same compound?
Its value is “did not affect”.

What about the IC50 [7] of the same compound?
The IC50 was 2.3 µM.

What about the Kd [8] of the same compound?
The Kd was 72.2 µM and 72 µM.

And the inhibition at 2 µM [9]?
Its inhibition at 2 µM is 10 to 20%.

And the “effect on forsilysin activity” value [10]?
The value was “almost completely unaffected”.

What about the “effect on forsilysin activity” value ([10]; listed as Cpd 9) of the same compound?
Its value is “did not affect”.

What about the “effect on trypsin activity” value [11] of the same compound?
The value was “almost completely unaffected”.

And the “effect on trypsin activity” value ([11]; listed as Cpd 9)?
The value was “did not affect”.

What about the “effect on thrombin activity” value [12] of the same compound?
Its value is “almost completely unaffected”.

And the “effect on thrombin activity” value ([12]; listed as Cpd 9)?
The value was “did not affect”.

And the Kd [13]?
Its Kd is 1.1 µM.

And the “effect on plasmin activity” value [14]?
Its value is “almost completely unaffected”.

And the “effect on plasmin activity” value ([14]; listed as Cpd 9)?
Its value is “did not affect”.

And the “effect on Kgp activity” value [15]?
The value was “almost completely unaffected”.

And the “effect on Kgp activity” value ([15]; listed as Cpd 9)?
The value was “did not affect”.

What about the “effect on proteolytic activity in aliquots during proM^wt activation” value [16, 18] of the same compound?
The value was “significantly decreased”.

What about the “reduction of mirolysin activity after 216 h of proM^wt activation” value [16, 18] of the same compound?
The value was 30%.

And the “effect on proM^wt maturation (35 kDa zymogen to 31 kDa form, SDS-PAGE)” value ([16]; proM^wt 70 µM, 50 M excess of compound, 37 °C, 216 h)?
The value was “significantly slowed”.

What about the “time to complete proM^wt maturation” value ([16]; proM^wt 70 µM, 50 M excess of compound, 37 °C, SDS-PAGE) of the same compound?
Its value is > 216 h.

And the “effect on mirolase activity” value [17]?
Its value is “almost completely unaffected”.

And the “effect on mirolase activity” value ([17]; listed as Cpd 9)?
The value was “did not affect”.

For `NCc1cccc(-c2ccco2)c1` [cpd 10], which inhibition at 10 µM [3] is on record?
Its inhibition at 10 µM is 20%.

And the “effect on karilysin activity” value [4]?
Its value is “almost completely unaffected”.

And the Ki [5]?
The Ki was 22 µM.

And the mode of inhibition [5]?
The mode of inhibition was “reversible competitive inhibitors”.

What about the “effect on RgpB activity” value [6] of the same compound?
The value was “almost completely unaffected”.

And the IC50 [7]?
Its IC50 is 6.6 µM.

What about the Kd [8] of the same compound?
The Kd was 278 µM.

What about the inhibition at 2 µM [9] of the same compound?
The inhibition at 2 µM was 10 to 20%.

And the “effect on forsilysin activity” value [10]?
The value was “almost completely unaffected”.

What about the “effect on trypsin activity” value [11] of the same compound?
Its value is “almost completely unaffected”.

And the “effect on thrombin activity” value [12]?
Its value is “almost completely unaffected”.

What about the Kd [13] of the same compound?
The Kd was 9.7 µM.

What about the “effect on plasmin activity” value [14] of the same compound?
Its value is “almost completely unaffected”.

And the “effect on Kgp activity” value [15]?
Its value is “almost completely unaffected”.

What about the “effect on mirolase activity” value [17] of the same compound?
Its value is “almost completely unaffected”.
